Measured values published in patent publication US20230321086A1, “METHODS AND MATERIALS FOR INHIBITING NICOTINAMIDE PHOSPHORIBOSYLTRANSFERASE ACTIVITY” (Universiy of Pittsburgh - Of the Commonwealth System of …, priority 2020, published 2023).

What follows are molecules tested on A431 cells (assay: Assay for total NADH and NAD+ measurements in cells). Conditions: percent of NAD level of untreated control cells (100 = no change).
Assay type: cell-based
Set-up: C: change in NAD levels in response to test compound, shown as % of NAD activity in the absence of test compound: concentration or dose not given beside the values
Method: 2,000 cells/well and, at the same time, test compounds dissolved in media at the desired concentration were added to each well. The treated cells were incubated overnight in C02 incubator. The cells were washed 6 times with PBS with 1 mM CaCl2) and 1 mM MgCl2. In the last wash, 10 μL of PBS with 1 mM CaCl2) and 1 mM MgCl2 per well were left in each well. Immediately thereafter, 10 μL 0.4% dodecyltrimethylammonium bromide (DTAB) in phosphate buffer pH 8.0 as added, and the plates were shaked at 1000 rpm for 5 minutes. 60 μL reaction mix was added, and fluorescence at Ex/Em 530/585 was immediately monitored. A linear increase should be achieved with 8 cycles every 92 seconds, 10 number of flashes/well/cycle. The reaction mix was prepared per the following table, respecting the amount and order in which each component was added:
All assays were performed in A431 cells. Referring to the tables below, activity: “+” ≥25 μM, “++” ≥1 μM and <25 μM, and “+++”<1 μM.
In each table header, A: NAMPT enzyme inhibitory activity, IC50 (μM); B: Cellular NAD inhibitory activity, IC50 (μM); and C: change in NAD levels in response to test compound, shown as % of NAD activity in the absence of test compound. […] A percentage of 100 percent would indicate no increase or decrease in NAD levels as compared to that measured for untreated control cells, while a percentage of 50 percent would indicate a decrease in NAD levels of 50 percent as compared to that measured for untreated control cells.

Structure (SMILES) | C: change in NAD levels in response to test compound, shown as % of NAD activity in the absence of test compound
Cn1cc(-c2ccc3nc(-c4ccc(F)cc4)c(-c4ccc(F)cc4)nc3c2)nn1 [BC19148] | 80%
CN1CCN(CCCNS(=O)(=O)c2ccc3nc(-c4ccc(F)cc4)c(-c4ccc(F)cc4)nc3c2)CC1 [BC19561] | 24%
O=C(NCCN1CCOCC1)c1ccc2nc(-c3ccc(F)cc3)c(-c3ccc(F)cc3)nc2c1 [BC19237] | 24%
OCCCn1c(-c2ccc3nc(-c4ccc(F)cc4)c(-c4ccc(F)cc4)nc3c2)n[nH]c1=S [BC19664] | 70%
CN(C)CCCNC(=O)Nc1ccc2nc(-c3ccc(F)cc3)c(-c3ccc(F)cc3)nc2c1 [BC19573] | 11%
Cn1cc(-c2cnc3nc(-c4ccc(F)cc4)c(-c4ccc(F)cc4)nc3c2)nn1 [BC19401] | 55%
Fc1ccc(-c2nc3ccc(-c4nnco4)cc3nc2-c2ccc(F)cc2)cc1 [BC19250] | 13%
CN1CCN(C(=O)c2ccc3nc(-c4ccc(OC(F)(F)F)cc4)c(-c4ccc(OC(F)(F)F)cc4)nc3c2)CC1 [BC19445] | 14%
CN1CCN(CCNC(=O)Nc2ccc3nc(-c4ccc(F)cc4)c(-c4ccc(F)cc4)nc3c2)CC1 [BC19616] | 31%
Cc1nnc(-c2ccc3nc(-c4ccc(F)cc4)c(-c4ccc(F)cc4)nc3c2)o1 [BC19141] | 62%
COCCNS(=O)(=O)c1ccc2nc(-c3ccc(F)cc3)c(-c3ccc(F)cc3)nc2c1 [BC19507] | 53%
COCCNC(=O)Nc1ccc2nc(-c3ccc(F)cc3)c(-c3ccc(F)cc3)nc2c1 [BC19565] | 65%
C#CCNC(=O)c1cccc2nc(-c3ccc(F)cc3)c(-c3ccc(F)cc3)nc12 [BC19321] | 72%
N#Cc1ccc2nc(-c3ccc(F)cc3)c(-c3ccc(F)cc3)nc2n1 [BC19512] | 85%
O=C(NCc1ccccn1)Nc1ccc2nc(-c3ccc(F)cc3)c(-c3ccc(F)cc3)nc2c1 [BC19570] | 29%
CC(=O)N1CCN(c2ccc3nc(-c4ccc(F)cc4)c(-c4ccc(F)cc4)nc3c2)CC1 [BC19511] | 26%
CN1CCN(C(=O)c2ccc3nc(-c4ccc(F)cc4)c(-c4ccc(Cl)cc4)nc3c2)CC1 [BC19317] | 42%
O=C(NCCN1CCOCC1)Nc1ccc2nc(-c3ccc(F)cc3)c(-c3ccc(F)cc3)nc2c1 [BC19567] | 46%
CNC(=O)N1CCC(C(=O)Nc2ccc3nc(-c4ccc(F)cc4)c(-c4ccc(F)cc4)nc3c2)CC1 [BC19311] | 63%
Cc1ccc(S(=O)(=O)c2nc3cc(C(=O)N4CCN(C)CC4)ccc3nc2-c2ccc(F)cc2)cc1 [BC19308] | 48%
O=C(NCCN1CCOCC1)c1ccc2nc(-c3ccc(OC(F)(F)F)cc3)c(-c3ccc(OC(F)(F)F)cc3)nc2c1 [BC19503] | 43%
O=C(NCCCN1CCCC1=O)Nc1ccc2nc(-c3ccc(F)cc3)c(-c3ccc(F)cc3)nc2c1 [BC19617] | 58%
CN1CCC(C(=O)Nc2ccc3nc(-c4ccc(F)cc4)c(-c4ccc(F)cc4)nc3c2)CC1 [BC19309] | 18%
C=CC(=O)Nc1ccc2nc(-c3ccc(F)cc3)c(-c3ccc(F)cc3)nc2c1 [BC19313] | 91%
Cn1nnnc1-c1ccc2nc(-c3ccc(F)cc3)c(-c3ccc(F)cc3)nc2c1 [BC19139] | 29%
C#CCNC(=O)c1ccc2nc(-c3ccc(F)cc3F)c(-c3ccccc3)nc2c1 [BC19406] | 93%
COCCCNC(=O)Nc1ccc2nc(-c3ccc(F)cc3)c(-c3ccc(F)cc3)nc2c1 [BC19574] | 61%

Structure (SMILES) | C: change in NAD levels in response to test compound, shown as % of NAD activity in the absence of test compound
CCNS(=O)(=O)c1ccc2nc(-c3ccc(F)cc3)c(-c3ccc(F)cc3)nc2c1 [BC19556] | 44%
CN1CCN(C(=O)c2ccc3nc(-c4ccc(F)cc4)c(-c4ccc(F)cc4F)nc3c2)CC1 [BC19318] | 67%
O=C(NCCCO)Nc1ccc2nc(-c3ccc(F)cc3)c(-c3ccc(F)cc3)nc2c1 [BC19575] | 78%
C#CCNC(=O)c1ccc2nc(-c3ccc(F)cc3)c(-c3ccc(F)cc3)nc2c1 [BC19154] | 73%
C#CCNC(=O)c1ccc2nc(-c3ccc(Cl)cc3)c(-c3ccc(Cl)cc3)nc2c1 [BC19451] | 57%
Fc1ccc(-c2nc3ccc(-c4nncn4CCN4CCOCC4)cc3nc2-c2ccc(F)cc2)cc1 [BC19306] | 76%
Cn1cnnc1-c1ccc2nc(-c3ccc(F)cc3)c(-c3ccc(F)cc3)nc2c1 [BC19101] | 53%
CN1CCN(C(=O)c2ccc3nc(-c4ccc(F)cc4F)c(-c4ccccc4)nc3c2)CC1 [BC19405] | 69%
Fc1ccc(-c2nc3ccc(-c4nnnn4CCN4CCOCC4)cc3nc2-c2ccc(F)cc2)cc1 [BC19238] | 68%
CN1CCN(C(=O)c2ccc3nc(-c4cccc(N(C)C)c4)c(-c4cccc(N(C)C)c4)nc3c2)CC1 [BC19498] | 66%
CN1CCN(C(=O)c2cccc3nc(-c4ccc(F)cc4)c(-c4ccc(F)cc4)nc23)CC1 [BC19400] | 76%
CCCc1nnc(-c2ccc3nc(-c4ccc(F)cc4)c(-c4ccc(F)cc4)nc3c2)[nH]1 [BC19247] | 94%
CCCn1cc(-c2cnc3nc(-c4ccc(F)cc4)c(-c4ccc(F)cc4)nc3c2)nn1 [BC19402] | 64%
O=C(NCCO)c1ccc2nc(-c3ccc(OC(F)(F)F)cc3)c(-c3ccc(OC(F)(F)F)cc3)nc2c1 [BC19453] | 88%
Cn1nnnc1-c1ccc2nc(C(F)(F)F)c(-c3ccc(F)cc3)nc2c1 [BC19112] | 86%
CN1CCN(c2ccc3nc(-c4ccc(F)cc4)c(-c4ccc(F)cc4)nc3c2)CC1 [BC19510] | 41%
CN(C)CCNS(=O)(=O)c1ccc2nc(-c3ccc(F)cc3)c(-c3ccc(F)cc3)nc2c1 [BC19555] | 1%
Cc1ccncc1-c1ccc2nc(-c3ccc(F)cc3)c(-c3ccc(F)cc3)nc2c1 [BC19304] | 69%
O=C1CCCN1CCCNS(=O)(=O)c1ccc2nc(-c3ccc(F)cc3)c(-c3ccc(F)cc3)nc2c1 [BC19560] | 51%
CN1CCN(C(=O)c2cc3nc(-c4ccc(F)cc4)c(-c4ccc(F)cc4)nc3cn2)CC1 [BC19666] | 70%
Cn1cnnc1-c1cnc2nc(-c3ccc(F)cc3)c(-c3ccc(F)cc3)nc2c1 [BC19496] | 95%
CN1CCN(C(=O)c2ccc3nc(-c4ccc(F)cc4)c(-c4ccc(Cl)cc4Cl)nc3c2)CC1 [BC19398] | 94%
Fc1ccc(-c2nc3ccc(-c4nnc[nH]4)cc3nc2C(F)(F)F)cc1 [BC19159] | 92%
CN1CCN(C(=O)c2ccc3nc(-c4ccc(F)cc4)c(-c4ccc(OC(F)(F)F)cc4)nc3c2)CC1 [BC19399] | 92%
Fc1ccc(-c2nc3ccc(-c4c[nH]nn4)cc3nc2-c2ccc(F)cc2)cc1 [BC19150] | 89%
Fc1ccc(-c2nc3ccc(-c4ccncc4)cc3nc2-c2ccc(F)cc2)cc1 [BC19245] | 67%
